{
  "source": "patent US20230416677A1",
  "about": "(XCELL THERAPEUTICS INC., priority 2020, published 2023)",
  "key": {"[1]": {"test_system": "Human dermal papilla cells (hDPC)", "test": "Flow cytometry of dermal papilla cell biological markers", "format": "cell-based", "conditions": "serum-free medium with 0.1 g/L albumin and 1 to 100 pM rotenone versus control not treated with rotenone; FIG. 4", "experimental": "The cells were detached from each flask by the use of TrypLE Express, and then the cells were centrifuged. The supernatant was discarded to leave only the cells in the lower layer. The cells were fixed for 15 minutes using a 4% formaldehyde solution, and then reacted on ice for 10 minutes using a 0.5% tween-20 permeabilization solution to prepare cells. The prepared cells were well resuspended in PBS supplemented with 1% FBS, and then the cells were stained using an antibody serving as a previously selected biological marker. CD34 and HLA-DR were selected as negative markers, and alkaline phosphatase, versican, and CD105 were selected as positive markers. After fixing the stained cells with 4% formaldehyde solution for 15 minutes, and flow cytometry was performed using CytoFLEX (Beckman Coulter, USA)."}, "cell division": {"test_system": "cell division", "conditions": "background statement; cited from earlier work"}, "[2]": {"test_system": "Human dermal papilla cells (hDPC)", "test": "Passage culture of dermal papilla cells in albumin-added serum-free medium in the presence or absence of rotenone (density, doubling time, accumulated cell number, viability)", "format": "cell-based", "experimental": "hDPCs were prepared in the same manner as in Example 1. […] The hDPCs were inoculated at a concentration of 1.52×10^5/flask. After culturing in a 5% carbon dioxide incubator at 37° C., photographs of the cells were taken before passage to confirm the density of dermal papilla cells according to the rotenone treatment.\nOn the other hand, each time the density of the cells proliferated to 90% or more, the cells were passaged. During the passage, the cells were detached from each flask by the use of TrypLE Express, and then the cells were centrifuged. The supernatant was discarded to leave only the cells in the lower layer. The cells were well resuspended by adding a condition-based medium, and then the cell numbers were measured using NC250™ (Chemometec, Denmark). Using the measured cell number and culture time, the doubling time and accumulated cell numbers per day were calculated using the following Equation.\nA=previous passage, B=current passage\nDoubling time=ln(2)×(Δtime between B and A)/ln(count B/count A) [Equation 1]\nAccumulated cell number (ACN)=ACN of A×cell count of B/seeding number [Equation 2]\nEach time the density of the cells proliferated to 90% or more, the cells were passaged. During the passage, the cells were detached from each flask by the use of TrypLE Express, and then the cells were centrifuged. The supernatant was discarded to leave only the cells in the lower layer. The cells were well resuspended by adding a condition-based medium, and then the cell viability was measured using NC250™(Chemometec, Denmark) at each passage."}, "[3]": {"test_system": "Human dermal papilla cells (hDPC)", "test": "CCK-8 proliferation of dermal papilla cells in serum-free medium treated with rotenone", "format": "cell-based", "conditions": "rotenone 10 to 100 pM, 72 hours, compared to control group (untreated) and PromoCell medium, FIG. 1", "experimental": "Human dermal papilla cells (hDPC) purchased from PromoCell were inoculated in a Follicle Dermal Papilla cell Growth media (Promocell, Heidelberg, Germany) supplemented with 1% Antibiotic and Antimycotic Hyclone sv30079.91 (hereinafter referred to as Promocell medium), and a serum-free medium, and cultured in a 5% carbon dioxide incubator at 37° C. to prepare cells. The prepared human dermal papilla cells (hDPCs) were seeded at a concentration of 2×10^3/well into 96-well plates, in which a serum-free medium treated with different concentrations (0, 1, 10, 100, 1000 pM) of rotenone (Tocris Bioscience, UK) was put, in a Follicle Dermal Papilla cell Growth media as a commercially available medium, and then cultured for 72 hours. Then, the culture medium in each well was removed, then added to 10 ul CCK-8 reagent and 90 ul medium, respectively, and cultured for 2 hours at a temperature of 37° C. The absorbance of the supernatant was measured at 450 nm using an ELISA reader to confirm the extent of cell proliferation."}},
  "data": [
    {"smiles": "C=C(C)[C@H]1Cc2c(ccc3c2OC2COc4cc(OC)c(OC)cc4C2C3=O)O1", "note": "(stereo in doubt) [rotenone, (2R,6aS,12aS)-1,2,6,6a,12 ,12a-hexahydro-2-isopropenyl-8,9-dimethoxychromeno[3,4-b]furo(2,3-h)chromen-6-one]", "values": [
      {"measurement": "biological positive markers (alkaline phosphatase, versican, CD105)", "setting": "[1]", "value": "maintained at higher levels"},
      {"measurement": "negative markers (CD34, HLA-DR)", "setting": "[1]", "value": "maintained at lower levels"},
      {"measurement": "concentrations at which rotenone is known to inhibit cell division", "setting": "cell division", "value": "10 to 100", "unit": "nM"},
      {"measurement": "cell density of dermal papilla cells", "setting": "[2]; 10 pM rotenone versus rotenone-untreated group, serum-free medium with 0.1 g/L albumin, FIG. 3a", "value": "higher cell density"},
      {"measurement": "doubling time", "setting": "[2]; rotenone -treated versus rotenone-untreated group, serum-free medium with 0.1 g/L albumin, FIG. 3b", "value": "lower doubling time"},
      {"measurement": "cell viability", "setting": "[2]; rotenone-treated versus rotenone-untreated group, 0.1 g/L albumin, each passage, FIG. 3d", "value": "higher cell viability"},
      {"measurement": "accumulated cell numbers over time", "setting": "[2]; rotenone-treated versus rotenone-untreated group, 0.1 g/L albumin, FIG. 3c", "value": "higher"},
      {"measurement": "proliferation of dermal papilla cells (CCK-8, absorbance 450 nm)", "setting": "[3]", "value": "proliferation of dermal papilla cells increases"}
    ]}
  ]
}
